Results: ChEMBL document CHEMBL5260850, “The exploration of aza-quinolines as hematopoietic prostaglandin D synthase (H-PGDS) inhibitors with low brain exposure” (Bioorg Med Chem, 2020)
The source made the active and inactive calls. The calls are words filed in the database; no cut-off is given here.

Legend:
[1] = Toxicity in dog assessed as organ morphological changes upto 30 mg/kg/day, po QD for 4 days by microscopic analysis; type: organism-based, Canis lupus familiaris; conditions: in vivo, 96 h, time 4 day
[2] = Toxicity in compound 48/80-treated C57BL/6J mouse assessed as seizures administered orally with compound and 1 hr later treated with compound 48/80 for 7 mins; conditions: in vivo, po, 1.117 h, time 67 min
Mus musculus [3] = assay: Anti-inflammatory activity against mdx mouse assessed as inhibition of muscle function loss by measuring functional recovery of injured limb muscles administered orally 10 mins prior to unilateral eccentric contraction and QD for 43 days thereafter; conditions: 1032 h, route po, time 43 day
[4] = molecular target: GABA-A receptor; anion channel (Homo sapiens) (UniProt P14867+P47870+P18507+P28472+P48169+Q99928+Q9UN88+P34903+O00591+O14764+Q8N1C3+P18505+P78334+P47869+P31644+Q16445); conditions: dose <= 10000.0 nM
Description: Inhibition of GABAA receptor (unknown origin) upto 10000 nM

[5] = molecular target: Adenosine receptor A2a (Homo sapiens) (UniProt P29274); conditions: dose <= 10000.0 nM
Description: Inhibition of adenosine A2A receptor (unknown origin) upto 10000 nM

[6] = molecular target: 5-hydroxytryptamine receptor 2C (Homo sapiens) (UniProt P28335); conditions: dose <= 10000.0 nM
Sequence of 5-hydroxytryptamine receptor 2C (Homo sapiens) (P28335 whole entry): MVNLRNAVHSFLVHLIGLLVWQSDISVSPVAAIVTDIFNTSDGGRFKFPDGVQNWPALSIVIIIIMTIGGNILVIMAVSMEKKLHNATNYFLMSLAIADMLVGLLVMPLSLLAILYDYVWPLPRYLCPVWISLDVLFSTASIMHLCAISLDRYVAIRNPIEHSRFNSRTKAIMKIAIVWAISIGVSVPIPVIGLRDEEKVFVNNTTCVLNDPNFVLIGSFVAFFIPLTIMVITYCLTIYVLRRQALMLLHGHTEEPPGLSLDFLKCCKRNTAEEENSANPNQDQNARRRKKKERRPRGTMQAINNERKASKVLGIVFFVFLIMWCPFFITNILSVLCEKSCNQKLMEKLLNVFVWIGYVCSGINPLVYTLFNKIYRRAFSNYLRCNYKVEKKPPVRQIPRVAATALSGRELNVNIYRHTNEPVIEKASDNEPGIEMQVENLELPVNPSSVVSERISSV
Description: Inhibition of 5-HT2C receptor (unknown origin) upto 10000 nM

[7] = molecular target: Histamine H1 receptor (Homo sapiens) (UniProt P35367); conditions: dose <= 10000.0 nM
Sequence of Histamine H1 receptor (Homo sapiens) (P35367 whole entry): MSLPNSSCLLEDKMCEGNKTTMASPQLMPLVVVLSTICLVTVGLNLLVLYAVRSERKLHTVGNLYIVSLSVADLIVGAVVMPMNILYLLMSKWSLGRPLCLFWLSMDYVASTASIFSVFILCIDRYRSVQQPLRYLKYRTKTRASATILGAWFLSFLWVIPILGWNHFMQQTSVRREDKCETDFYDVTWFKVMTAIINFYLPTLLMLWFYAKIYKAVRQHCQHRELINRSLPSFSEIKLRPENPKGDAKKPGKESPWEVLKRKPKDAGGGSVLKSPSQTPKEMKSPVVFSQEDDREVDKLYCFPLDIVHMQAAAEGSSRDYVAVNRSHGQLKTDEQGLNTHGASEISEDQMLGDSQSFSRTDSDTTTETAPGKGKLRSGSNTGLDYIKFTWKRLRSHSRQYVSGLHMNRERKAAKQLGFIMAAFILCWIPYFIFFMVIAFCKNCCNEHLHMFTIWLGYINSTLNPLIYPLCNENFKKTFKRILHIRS
Description: Inhibition of histamine H1 receptor (unknown origin) upto 10000 nM

[8] = Toxicity in Wistar Han rat assessed as morphological changes in adrenal gland at 30 mg/kg/day, po administered QD for 7 days by microscopic analysis; type: organism-based; conditions: in vivo, 168 h, time 7 day
[9] = molecular target: Alpha-2C adrenergic receptor (Homo sapiens) (UniProt P18825); conditions: dose <= 10000.0 nM
Description: Inhibition of alpha2C adrenergic receptor (unknown origin) upto 10000 nM

[10] = molecular target: Vasopressin V1a receptor (Homo sapiens) (UniProt P37288); conditions: dose <= 10000.0 nM
Description: Inhibition of V1A receptor (unknown origin) upto 10000 nM

[11] = Toxicity in Wistar Han rat assessed as morphological changes in kidney at 30 mg/kg/day, po administered QD for 7 days by microscopic analysis; type: organism-based; conditions: in vivo, 168 h, time 7 day
[12] = Toxicity in dog assessed as clinical pathological changes by measuring increase in cardiac troponin 1 level at 75 mg/kg/day, po QD for 4 days; type: organism-based, Canis lupus familiaris; conditions: in vivo, 96 h, time 4 day
[13] = molecular target: Solute carrier organic anion transporter family member 1B1 (Homo sapiens, UniProt Q9Y6L6); assay: Inhibition of OATP1B1 (unknown origin) upto 10000 nM; conditions: 10 µM
[14] = Free Cmax in eccentric contraction-induced muscle injury C57BL/6N mouse model administered orally 10 mins prior to unilateral eccentric contraction and QD for 16 days thereafter; type: ADME; conditions: in vivo, po, 384 h, time 16 day
[15] = Half life in mouse liver microsomes pretreated for 5 mins followed by incubation with NADP for 30 secs and measured upto 45 mins by LC-MS/MS analysis; type: ADME, Microsome; conditions: time 3030 sec
[16] = molecular target: Acetylcholinesterase (Homo sapiens) (UniProt P22303); conditions: dose <= 10000.0 nM
Sequence of Acetylcholinesterase (Homo sapiens) (P22303 whole entry): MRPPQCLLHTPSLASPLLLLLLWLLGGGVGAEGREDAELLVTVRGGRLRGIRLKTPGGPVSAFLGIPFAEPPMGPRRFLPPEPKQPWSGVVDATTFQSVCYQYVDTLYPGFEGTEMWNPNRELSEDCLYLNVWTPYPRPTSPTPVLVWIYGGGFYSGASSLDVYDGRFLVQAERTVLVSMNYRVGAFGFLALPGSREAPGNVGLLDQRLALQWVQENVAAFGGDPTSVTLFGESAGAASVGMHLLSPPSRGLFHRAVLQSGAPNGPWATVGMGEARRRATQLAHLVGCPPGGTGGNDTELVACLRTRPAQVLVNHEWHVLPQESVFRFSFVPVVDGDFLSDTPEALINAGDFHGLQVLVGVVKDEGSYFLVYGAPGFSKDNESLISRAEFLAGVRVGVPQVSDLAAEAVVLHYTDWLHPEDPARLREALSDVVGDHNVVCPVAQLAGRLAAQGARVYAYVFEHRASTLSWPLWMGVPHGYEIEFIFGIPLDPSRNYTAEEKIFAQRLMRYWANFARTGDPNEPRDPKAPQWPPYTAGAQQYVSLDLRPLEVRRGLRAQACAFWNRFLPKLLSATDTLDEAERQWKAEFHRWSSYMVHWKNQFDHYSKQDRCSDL
Description: Inhibition of AChE (unknown origin) upto 10000 nM

[17] = molecular target: cGMP-inhibited 3',5'-cyclic phosphodiesterase 3A (Homo sapiens) (UniProt Q14432); conditions: dose <= 10000.0 nM
Sequence of cGMP-inhibited 3',5'-cyclic phosphodiesterase 3A (Homo sapiens) (Q14432 whole entry): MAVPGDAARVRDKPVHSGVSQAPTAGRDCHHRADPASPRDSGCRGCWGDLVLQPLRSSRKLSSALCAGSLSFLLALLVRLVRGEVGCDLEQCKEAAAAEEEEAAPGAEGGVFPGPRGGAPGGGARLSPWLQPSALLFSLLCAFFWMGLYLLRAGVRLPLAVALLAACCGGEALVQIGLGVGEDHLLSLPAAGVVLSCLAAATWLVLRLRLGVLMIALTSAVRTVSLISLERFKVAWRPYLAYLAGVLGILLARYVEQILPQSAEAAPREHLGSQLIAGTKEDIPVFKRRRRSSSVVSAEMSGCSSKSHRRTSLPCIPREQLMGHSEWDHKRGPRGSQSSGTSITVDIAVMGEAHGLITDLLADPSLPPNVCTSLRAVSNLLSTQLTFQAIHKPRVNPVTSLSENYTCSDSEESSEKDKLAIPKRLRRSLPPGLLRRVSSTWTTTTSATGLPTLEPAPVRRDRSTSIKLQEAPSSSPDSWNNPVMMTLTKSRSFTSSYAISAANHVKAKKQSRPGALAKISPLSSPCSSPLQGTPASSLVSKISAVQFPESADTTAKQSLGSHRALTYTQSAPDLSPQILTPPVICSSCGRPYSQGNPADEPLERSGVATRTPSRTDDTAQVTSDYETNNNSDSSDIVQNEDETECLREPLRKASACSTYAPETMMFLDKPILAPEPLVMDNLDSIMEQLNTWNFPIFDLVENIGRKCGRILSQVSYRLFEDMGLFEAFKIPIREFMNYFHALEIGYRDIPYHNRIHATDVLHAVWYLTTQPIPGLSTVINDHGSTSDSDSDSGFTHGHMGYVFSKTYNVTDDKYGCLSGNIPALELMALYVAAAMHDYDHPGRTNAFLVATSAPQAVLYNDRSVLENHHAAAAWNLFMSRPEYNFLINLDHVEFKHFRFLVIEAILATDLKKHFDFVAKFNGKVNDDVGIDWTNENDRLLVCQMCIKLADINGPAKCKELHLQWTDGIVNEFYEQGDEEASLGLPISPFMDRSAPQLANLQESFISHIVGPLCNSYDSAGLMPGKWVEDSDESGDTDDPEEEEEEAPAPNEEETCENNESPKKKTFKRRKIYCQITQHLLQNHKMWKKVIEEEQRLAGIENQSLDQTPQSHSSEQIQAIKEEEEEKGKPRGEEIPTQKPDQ
Description: Inhibition of PDE3A (unknown origin) upto 10000 nM

[18] = molecular target: Mu-type opioid receptor (Homo sapiens) (UniProt P35372); conditions: dose <= 10000.0 nM
Sequence of Mu-type opioid receptor (Homo sapiens) (P35372 whole entry): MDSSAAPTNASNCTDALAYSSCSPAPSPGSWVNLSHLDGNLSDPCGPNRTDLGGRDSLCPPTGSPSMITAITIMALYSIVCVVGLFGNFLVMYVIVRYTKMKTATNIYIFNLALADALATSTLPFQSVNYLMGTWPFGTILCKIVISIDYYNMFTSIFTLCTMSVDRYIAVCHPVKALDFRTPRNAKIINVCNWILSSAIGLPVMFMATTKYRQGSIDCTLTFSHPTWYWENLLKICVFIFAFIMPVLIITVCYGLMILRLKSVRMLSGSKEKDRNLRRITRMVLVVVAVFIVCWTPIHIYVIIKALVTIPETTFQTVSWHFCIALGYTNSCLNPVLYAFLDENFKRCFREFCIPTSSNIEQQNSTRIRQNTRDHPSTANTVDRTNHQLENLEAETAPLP
Description: Inhibition of mu opioid receptor (unknown origin) upto 10000 nM

[19] = Terminal half life in dog at 0.5 mg/kg, iv; type: ADME, organism-based, Canis lupus familiaris; conditions: in vivo, read-out: beta t1/2 (converted)
Mus musculus [20] = assay: Anti-inflammatory activity against mdx mouse assessed as inhibition of muscle function loss by measuring functional recovery of injured limb muscles at 0.1 to 10 mg/kg, po administered 10 mins prior to unilateral eccentric contraction and QD for 43 days thereafter; design: scale not given: the % may be the effect or the level left; conditions: dose 0.1-10 mg/kg, time 43 day
[21] = Free AUC (0 to last) in eccentric contraction-induced muscle injury C57BL/6N mouse model administered orally for 10 mins prior to unilateral eccentric contraction and QD for 16 days thereafter; type: ADME; conditions: in vivo, po, 384 h, time 16 day
Bile salt export pump = Bile salt export pump (Homo sapiens, UniProt O95342); assay: Inhibition of BSEP (unknown origin) upto 10000 nM; conditions: 10 µM
[22] = molecular target: 5-hydroxytryptamine receptor 2A (Homo sapiens) (UniProt P28223); conditions: dose <= 10000.0 nM
Description: Inhibition of 5-HT2A receptor (unknown origin) upto 10000 nM

[23] = Cmax in Wistar Han rat at 100 mg/kg/day, po QD for 7 days; type: ADME, organism-based; design: dose 100 mg/kg/day, time 7 day, route po; conditions: in vivo
[24] = Toxicity in dog assessed as body weight loss at 75 mg/kg/day, po QD for 4 days; type: organism-based, Canis lupus familiaris; conditions: in vivo, 96 h, time 4 day
[25] = Toxicity in dog assessed as tolerance upto 30 mg/kg/day, po QD for 4 days; type: organism-based, Canis lupus familiaris; conditions: in vivo, 96 h, time 4 day
[26] = Inhibition of m-PGES (unknown origin); design: species or system Homo sapiens
[27] = Toxicity in LPS-treated C57BL6/N mouse assessed as seizures administered orally with compound and 1 hr later treated with LPS and measured after 30 mins; conditions: in vivo, po, 1.5 h
[28] = molecular target: Sodium-dependent serotonin transporter (Homo sapiens) (UniProt P31645); conditions: dose <= 10000.0 nM
Sequence of Sodium-dependent serotonin transporter (Homo sapiens) (P31645 whole entry, looked up): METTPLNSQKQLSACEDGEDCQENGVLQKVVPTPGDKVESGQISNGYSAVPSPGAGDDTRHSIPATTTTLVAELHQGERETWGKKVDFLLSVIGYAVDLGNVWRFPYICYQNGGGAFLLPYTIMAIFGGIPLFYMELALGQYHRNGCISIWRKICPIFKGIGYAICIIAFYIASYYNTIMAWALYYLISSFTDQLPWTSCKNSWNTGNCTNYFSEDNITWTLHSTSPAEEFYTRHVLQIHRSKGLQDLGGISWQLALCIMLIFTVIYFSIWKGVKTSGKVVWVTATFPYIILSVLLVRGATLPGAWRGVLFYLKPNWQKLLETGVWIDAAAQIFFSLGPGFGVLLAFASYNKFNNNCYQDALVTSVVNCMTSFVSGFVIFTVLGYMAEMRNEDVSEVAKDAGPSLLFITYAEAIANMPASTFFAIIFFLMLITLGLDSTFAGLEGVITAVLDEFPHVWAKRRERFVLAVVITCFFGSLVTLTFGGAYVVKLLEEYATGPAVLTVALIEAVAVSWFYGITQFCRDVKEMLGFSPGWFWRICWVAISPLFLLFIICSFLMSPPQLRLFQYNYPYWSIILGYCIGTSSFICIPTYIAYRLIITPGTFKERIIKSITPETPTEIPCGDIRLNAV
Description: Inhibition of SERT (unknown origin) upto 10000 nM

[29] = Selectivity ratio of EC50 for inhibition of H-PGDS in rat RBL cells assessed as reduction in A23187-induced PGD2 production to EC50 for anti-inflammatory activity against po dosed C57BL6/N mouse assessed as reduction in LPS-induced PGD2 level in plasma
Cytochrome P450 3A4 = Cytochrome P450 3A4 (Homo sapiens, UniProt P08684); assay: Inhibition of CYP3A4 (unknown origin); type: ADME
Sequence of Cytochrome P450 3A4 (P08684 whole entry): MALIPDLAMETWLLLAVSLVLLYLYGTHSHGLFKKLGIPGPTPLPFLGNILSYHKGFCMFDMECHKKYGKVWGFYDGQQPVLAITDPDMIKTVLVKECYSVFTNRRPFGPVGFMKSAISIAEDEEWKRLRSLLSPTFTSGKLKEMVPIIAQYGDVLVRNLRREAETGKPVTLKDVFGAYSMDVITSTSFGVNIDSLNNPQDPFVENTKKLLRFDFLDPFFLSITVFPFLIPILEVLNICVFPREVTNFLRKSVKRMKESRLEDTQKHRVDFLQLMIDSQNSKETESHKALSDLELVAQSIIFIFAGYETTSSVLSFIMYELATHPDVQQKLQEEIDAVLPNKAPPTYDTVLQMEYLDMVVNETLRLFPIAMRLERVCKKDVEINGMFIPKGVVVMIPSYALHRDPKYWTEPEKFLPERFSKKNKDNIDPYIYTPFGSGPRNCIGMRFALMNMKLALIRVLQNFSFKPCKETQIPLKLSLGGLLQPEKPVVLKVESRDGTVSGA

[30] = Toxicity in Wistar Han rat assessed as tolerance at 30 mg/kg/day, po administered QD for 7 days; type: organism-based; conditions: in vivo, 168 h, time 7 day
[31] = Genotoxicity in Salmonella typhimurium in absence of metabolic activation by Ames test; type: toxicity; conditions: salmonella enterica subsp. enterica serovar typhimurium
[32] = Genotoxicity in Salmonella typhimurium in presence of metabolic activation by Ames test; type: toxicity; conditions: salmonella enterica subsp. enterica serovar typhimurium
[33] = molecular target: Amine oxidase [flavin-containing] A (Homo sapiens, UniProt P21397); assay: Inhibition of MAO-A (unknown origin) upto 10000 nM; conditions: 10 µM
Sequence of Amine oxidase [flavin-containing] A (P21397 whole entry): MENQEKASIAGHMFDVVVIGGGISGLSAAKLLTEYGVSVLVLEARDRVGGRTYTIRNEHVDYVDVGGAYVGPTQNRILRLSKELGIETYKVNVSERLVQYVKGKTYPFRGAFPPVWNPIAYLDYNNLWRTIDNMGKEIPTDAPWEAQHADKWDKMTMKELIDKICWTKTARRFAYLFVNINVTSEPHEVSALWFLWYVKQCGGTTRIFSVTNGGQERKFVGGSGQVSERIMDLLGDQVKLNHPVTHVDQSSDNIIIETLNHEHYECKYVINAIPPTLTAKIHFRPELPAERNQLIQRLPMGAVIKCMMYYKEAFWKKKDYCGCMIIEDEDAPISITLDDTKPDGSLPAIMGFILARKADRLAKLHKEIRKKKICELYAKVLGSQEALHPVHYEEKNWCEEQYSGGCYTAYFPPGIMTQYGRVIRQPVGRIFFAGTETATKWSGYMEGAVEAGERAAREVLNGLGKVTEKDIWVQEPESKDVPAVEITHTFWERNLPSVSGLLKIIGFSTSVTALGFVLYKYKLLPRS

[34] = Cmax in mdx mouse administered orally 10 mins prior to unilateral eccentric contraction and QD for 43 days thereafter; type: ADME; design: time 43 day, route po; conditions: in vivo, po
[35] = molecular target: Sodium-dependent noradrenaline transporter (Homo sapiens) (UniProt P23975); conditions: dose <= 10000.0 nM
Description: Inhibition of NET (unknown origin) upto 10000 nM

[36] = Ratio of drug level in muscle to plasma in C57BL/6N mouse administered orally for 10 mins prior to unilateral eccentric contraction and QD for 43 days thereafter; type: toxicity, cell-free, Muscle tissue/plasma; conditions: route po, time 43 day
[37] = Apparent permeability, Papp of the compound at pH 7.4 incubated for 3 hrs by AMP based liquid chromatography; type: ADME; conditions: not told
[38] = Cmax in dog at 30 mg/kg/day, po QD for 4 days; type: ADME, organism-based, Canis lupus familiaris; design: time 4 day, dose 30 mg/kg/day, route po; conditions: in vivo
[39] = molecular target: Muscarinic acetylcholine receptor M1 (Homo sapiens) (UniProt P11229); conditions: dose <= 10000.0 nM
Description: Inhibition of muscarinic M1 receptor (unknown origin) upto 10000 nM

[40] = Free Cmax in mdx mouse administered orally 10 mins prior to unilateral eccentric contraction and QD for 43 days thereafter; type: ADME; conditions: in vivo, po, 1032 h, time 43 day

In the case of `CC(C)(O)[C@H]1CC[C@H](NC(=O)c2cnc3nc(C4CC4)ccc3c2)CC1`, the Activity [1] is reported as “Non-Toxic”, the Activity [2] is reported as “Non-Toxic” and the ED50 (Mus musculus [3]) is reported as 1.1 mg/kg. For the same compound, the inhibition [4] was “inactive”, the inhibition [5] was “inactive” and the inhibition [6] was “inactive”. For the same compound, the inhibition [7] was “inactive”, the Activity [8] was “Non-Toxic” and the inhibition [9] was “inactive”. The inhibition [10] was “inactive”, the Activity [11] was “Non-Toxic” and the Activity [12] was “Toxic”. The “inhibition (INH)” value [13] was “Not Active”, the fCmax [14] was 370 ng/mL and the half-life [15] was over 3 h. For the same compound, the inhibition [16] was “inactive”, the inhibition [17] was “inactive” and the inhibition [18] was “inactive”. The half-life [19] was 6.2 h, the Activity (Mus musculus [20]) was 90% and the fAUClast [21] was 1200 ng·h/mL. For the same compound, the “inhibition (INH)” value (Bile salt export pump) was “Not Active”, the inhibition [22] was “inactive” and the Cmax [23] was 57000 ng/mL. For the same compound, the Activity [24] was “Toxic”, the Activity [25] was “Non-Toxic” and the IC50 [26] was over 100 µM. The Activity [27] was “Non-Toxic”, the inhibition [28] was “inactive” and the “Ratio EC50” value [29] was 10. The IC50 (Cytochrome P450 3A4) was over 100 µM, the Activity [30] was “Non-Toxic” and the Activity [31] was “Non-Toxic”. The Activity [32] was “Non-Toxic”, the “inhibition (INH)” value [33] was “Not Active” and the Cmax [34] was 260 ng/mL. For the same compound, the inhibition [35] was “inactive”, the Kp at 1032 h [36] was 0.56 and the Papp at 3 h [37] was 4.4 ×10⁻⁶ cm/s. For the same compound, the Cmax [38] was 34000 ng/mL, the inhibition [39] was “inactive” and the fCmax [40] was 49 ng/mL.
